Measurements reported in patent US12171842B2, “Method for hyperthermially treating a cancer” (Imam Abdulrahman Bin Faisal University, priority 2021, dated 2024).

How the values were obtained:
[1] = test system: Human mammary adenocarcinoma (MCF7) cells; experiment: Cell viability (MTT) and EC50, MCF7; type: cell-based; settings: for effect on cell viability (in words): MCF7, 48 h, four doses (nanocomposites 0.025-0.5 mg/ml)
Description: (§1) Human mammary adenocarcinoma (MCF7) and the non-cancerous human foreskin fibroblasts (HFF) cell lines were used to assess the cytotoxic effect of the prepared compounds. Cells were cultured in a DMEM culture medium containing 10% HI—FBS, 1% Penicillin Streptomycin, and 1% MEM NEAA. Cells were maintained in a humidified setting at 37° C. with 5% CO2. For cell viability assay, cells were seeded in a 96-well plate with a density of 20,000 cells/well. While for microscopic images, 50,000 cells/well were plated on an eight-well chamber slide. On the following day, cells were switched to the starve culture medium that contains 0.5% HI—FBS. Cells were maintained for 24 h in the starve medium before the treatment was added.
(§2) MCF7 and HFF cells were treated with the subsequent conditions for 48 h: CuFe2O4/Mesosilicalite, Curcumin, Cisplatin, CuFe2O4/Mesosilicalite/Curcumin, CuFe2O4/Mesosilicalite/Curcumin/Cisplatin, or CuFe2O4/MCM-41/Curcumin/Cisplatin. Treatment concentrations of CuFe2O4/Mesosilicalite, CuFe2O4/Mesosilicalite/Curcumin, CuFe2O4/Mesosilicalite/Curcumin/Cisplatin, and CuFe2O4/MCM-41/Curcumin/Cisplatin nanocomposites were: 0.025, 0.05, 0.1, and 0.5 mg/ml. Based on the drug loading experiments, simple calculations were followed to reflect the actual quantity of curcumin and cisplatin that adsorbed on CuFe2O4/Mesosilicalite nanoparticles. According to the loading experiments, 1 mg of CuFe2O4 nanoparticles contains 0.25 mg and 0.045 mg of curcumin and cisplatin, respectively. Thus, if CuFe2O4/Mesosilicalite concentration was 0.5 mg/ml, there is 0.125 mg/ml of adsorbed curcumin and 0.0225 mg/ml of functionalized cisplatin. Therefore, the treatment concentrations of curcumin were: 0.00625, 0.0125, 0.025 and 0.125 mg/ml and the treatment concentrations of cisplatin were: 0.001125, 0.00225, 0.0045 and 0.0225 mg/ml.
(§3) To assess the compounds' cytotoxicity, 3-(4,5-dimethylthiazol-2-yl)-2,5-diphenyltetrazolium bromide (MTT), a cell viability assay, was used. It measures the cell viability by assessing the mitochondria's ability to convert yellow MTT solution into purple formazan insoluble crystals. […] The difference in color intensity was measured by SYNERGY-neo2 BioTek ELISA reader at 570 nm as a measuring wavelength. The technical triplicate readings of each condition were averaged, and the absorbance from MTT negative control was deducted from these readings. An initial reading was measured before MTT addition at the same wavelength. Thus, to remove undesirable interference in the measurement, the initial reading was subtracted from the final reading. Then, the treatment groups were analyzed by comparing them to the control (untreated cells). Cell viability was calculated using the following equation (1): […]

[2] = test system: non-cancerous human foreskin fibroblasts (HFF); experiment: Cell viability (MTT) and EC50, HFF; type: cell-based; settings: for effect on cell viability (in words): HFF, 48 h, four doses (nanocomposites 0.025-0.5 mg/ml)
Description: as §1, §2, §3

[3] = Cell viability (MTT) and EC50, HFF; type: cell-based, human; settings: human, HFF cells (non-cancerous human foreskin fibroblasts); HFF, third dose (0.1 mg/ml nanocomposite; 0.025 mg/ml curcumin), 48 h, versus untreated control
Description: as §1, §2, §3

SMILES	effect on cell viability (in words) [1]	EC50 Value ([1]; MCF-7 cell line, 48 h MTT, best-fit line) [µg/mL]	EC50 Value ([2]; HFF cell line, 48 h MTT, best-fit line) [µg/mL]	effect on cell viability (in words) [2]	viability at 25 µg/mL ([1]; Homo sapiens, MCF7, third dose (0.1 mg/ml nanocomposite; 0.025 mg/ml curcumin), 48 h, versus untreated control) [%]	viability at 48 h, 0.025 mg/ml [3] [%]
N.N.[Cl][Pt][Cl] [Cisplatin, cisplatin]	reduction in cell viability	4.425	3.763	reduction in cell viability		
COc1cc(/C=C/C(=O)CC(=O)/C=C/c2ccc(O)c(OC)c2)ccc1O [Curcumin]	reduced cell viability only at the highest concentration			minimally reduced the cell viability	80.7	84.1
